Holding throughout (format): cell-based, human
One assay deals with HL-60(TB). The assay can be described thus: NCI screening panel, HL-60(TB) (Leukemia). The method, then:
(§1) Representative compounds of Formula I were screened using the National Cancer Institute (NCI) screening panel, which consists of a panel of human tumor cell lines, representing leukemia, melanoma, and cancers of the lung, colon, ovary, breast, prostate and renal system.
(§2) After 24 h, two plates of each cell line are fixed in situ with TCA, to represent a measurement of the cell population for each cell line at the time of drug addition (Tz). Experimental drugs are solubilised in dimethyl sulfoxide at 400-fold the desired final maximum test concentration and stored frozen prior to use. At the time of drug addition, an aliquot of frozen concentrate is thawed and diluted to twice the desired final maximum test concentration with complete medium containing 50 μg/mL gentamicin. Additional four, 10-fold or ½ log serial dilutions are made to provide a total of five drug concentrations plus control. Aliquots of 100 μl of these different drug dilutions are added to the appropriate microtiter wells already containing 100 μl of medium, resulting in the required final drug concentrations.
(§3) Following drug addition, the plates are incubated for an additional 48 h at 37° C., 5% CO2, 95% air, and 100% relative humidity. For adherent cells, the assay is terminated by the addition of cold TCA (trichloroacetic acid). Cells are fixed in situ by the gentle addition of 50 μl of cold 50% (w/v) TCA (final concentration, 10% TCA) and incubated for 60 minutes at 4° C. The supernatant is discarded, and the plates are washed five times with tap water and air dried. Sulforhodamine B (SRB) solution (100 μl) at 0.4% (w/v) in 1% acetic acid is added to each well, and plates are incubated for 10 minutes at room temperature. After staining, unbound dye is removed by washing five times with 1% acetic acid and the plates are air dried. Bound stain is subsequently solubilised with 10 mM trizma base, and the absorbance is read on an automated plate reader at a wavelength of 515 nm. For suspension cells, the methodology is the same except that the assay is terminated by fixing settled cells at the bottom of the wells by gently adding 50 μl of 80% TCA (final concentration, 16% TCA). Using the seven absorbance measurements [time zero, (Tz), control growth, (C), and test growth in the presence of drug at the five concentration levels (Ti)], the percentage growth is calculated at each of the drug concentrations levels. Percentage growth inhibition is calculated as: [(Ti−Tz)/(C−Tz)]×100 for concentrations for which Ti>/=Tz and [(Ti−Tz)/Tz]×100 for concentrations for which Ti<Tz.
(§4) Three dose response parameters are calculated for each experimental agent. Growth inhibition of 50% (GI50) is calculated from [(Ti−Tz)/(C−Tz)]×100=50, which is the drug concentration resulting in a 50% reduction in the net protein increase (as measured by SRB staining) in control cells during the drug incubation. The drug concentration resulting in total growth inhibition (TGI) is calculated from Ti=Tz. The LC50 (concentration of drug resulting in a 50% reduction in the measured protein at the end of the drug treatment as compared to that at the beginning) indicating a net loss of cells following treatment is calculated from [(Ti−Tz)/Tz]×100=−50. Values are calculated for each of these three parameters if the level of activity is reached. However, if the effect is not reached or is exceeded, the value for that parameter is expressed as greater or less than the maximum or minimum concentration tested.

The next assay has as its system HOP-62. The assay can be described thus: NCI screening panel, HOP-62 (Non-Small Cell Lung Cancer). The method, then: as §1, §2, §3, §4
The subject of a further assay is NCI-H460. Nature of the assay: NCI screening panel, NCI-H460 (Non-Small Cell Lung Cancer). On the procedure:
as §1, §2, §3, §4

The test system of another assay is SW-620. The assay can be described thus: NCI screening panel, SW-620 (Colon Cancer). On the procedure:
as §1, §2, §3, §4

The test system of another assay is SF-539. The assay can be described thus: NCI screening panel, SF-539 (CNS Cancer). On the procedure:
as §1, §2, §3, §4

The next assay deals with IGROV1. The assay can be described thus: NCI screening panel, IGROV1 (Ovarian Cancer). The method, then:
as §1, §2, §3, §4

Another assay relates to OVCAR-8. Nature of the assay: NCI screening panel, OVCAR-8 (Ovarian Cancer). On the procedure:
as §1, §2, §3, §4

The test system of a further assay is MDA-MB-231/ATCC. Nature of the assay: NCI screening panel, MDA-MB-231/ATCC (Breast Cancer). On the procedure:
as §1, §2, §3, §4

The source of these data is US20150218212A1, “FLUORINATED EPOXYKETONE-BASED TETRAPEPTIDE COMPOUNDS AND USES THEREOF AS PROTEASOME INHIBITORS” (FLUORINOV PHARMA INC., priority 2012, published 2015).

Take `CC(C)C[C@H](NC(=O)[C@H](COC(F)F)NC(=O)CN1CCOCC1)C(=O)N[C@@H](COC(F)F)C(=O)N[C@@H](CC(C)C)C(=O)[C@@]1(C)CO1` [Example 1, (2S)—N-[(1S)-1-(difluoromethoxymethyl)-2-[[(1S)-3-methyl-1-[(2R)-2-methyloxirane-2-carbonyl]butyl]amino]-2-oxo-ethyl]-2-[[(2S)-3-(difluoromethoxy)-2-[(2-morpholinoacetyl)amino]propanoyl]amino]-4-methyl-pentanamide]: the Log10GI50 with HL-60(TB) is on record as −7.49; in the assay with HOP-62 it was −7.76; in the assay with NCI-H460, −7.30; with SW-620, −7.54; with SF-539, −7.78; with IGROV1, −7.43. For the same molecule, the Log10GI50 in the assay with OVCAR-8 is −6.85; in the assay on MDA-MB-231/ATCC it was −7.52. Moreover, the Log10LC50 in the assay on HL-60(TB) is reported as greater than −4.00; with HOP-62 it was −6.57; in the assay on NCI-H460, greater than −4.00; in the assay with SW-620, greater than −4.00; in the assay on SF-539, −6.62; with IGROV1 it was greater than −4.00. In addition, the Log10LC50 in the assay on OVCAR-8 and in the assay on MDA-MB-231/ATCC was greater than −4.00 each time. Moreover, the Log10TGI50 in the assay with HL-60(TB) is recorded as −6.30; in the assay with HOP-62, −7.33; in the assay with NCI-H460 it was −6.39; in the assay with SW-620, −5.43; in the assay with SF-539, −7.35; in the assay on IGROV1 it was −6.40. Further, the Log10TGI50 in the assay on OVCAR-8 is listed as greater than −4.00; in the assay on MDA-MB-231/ATCC, −6.76.
With `CC(C)C[C@H](NC(=O)[C@H](COC(F)F)NC(=O)CN1CCOCC1)C(=O)N[C@@H](Cc1ccccc1)C(=O)N[C@@H](CC(C)C)C(=O)[C@@]1(C)CO1` [Example 2, (2S)-N-[(1S)-1-benzyl-2-[[(1S)-3-methyl-1-[(2R)-2-methyloxirane-2-carbonyl]butyl]-amino]-2-oxo-ethyl]-2-[[(2S)-3-(difluoromethoxy)-2-[(2-morpholinoacetyl)amino]propanoyl]amino]-4-methyl-pentanamide], the Log10GI50 is on record as −7.55 in the assay on HL-60(TB); −7.90 in the assay with HOP-62; −7.37 in the assay on NCI-H460; less than −8.00 with SW-620; −7.87 in the assay with SF-539; −7.59 in the assay with IGROV1. In addition, the Log10GI50 is given as −7.22 with OVCAR-8 and −7.63 in the assay on MDA-MB-231/ATCC. The Log10LC50 in the assay on HL-60(TB) is given as greater than −4.00; in the assay with HOP-62, −7.04; in the assay on NCI-H460 it was greater than −4.00; in the assay on SW-620 it was greater than −4.00; in the assay on SF-539, −7.06; in the assay on IGROV1 it was greater than −4.00. For the same molecule, the Log10LC50 is greater than −4.00 in the assay on OVCAR-8 and −4.37 in the assay with MDA-MB-231/ATCC. The Log10TGI50 with HL-60(TB) is on record as −6.11; in the assay with HOP-62 it was −7.47; in the assay with NCI-H460 it was −6.57; in the assay on SW-620, −5.92; in the assay with SF-539, −7.46; in the assay with IGROV1, −6.66. For the same molecule, the Log10TGI50 with OVCAR-8 is −6.25; with MDA-MB-231/ATCC it was −6.79.
With `CC(C)C[C@H](NC(=O)[C@H](COC(F)F)NC(=O)CN1CCOCC1)C(=O)N[C@@H](Cc1ccccc1)C(=O)N[C@@H](Cc1ccccc1)C(=O)[C@@]1(C)CO1` [Example 3, (2S)-N-[(1S)-1-benzyl-2-[[(1S)-1-benzyl-2-[(2R)-2-methyloxiran-2-yl]-2-oxo-ethyl]amino]-2-oxo-ethyl]-2-[[(2S)-3-(difluoromethoxy)-2-[(2-morpholinoacetyl)-amino]propanoyl]amino]-4-methyl-pentan-amide], the Log10GI50 with HL-60(TB) was −7.83; in the assay on HOP-62, less than −8.00; with NCI-H460, −7.43; in the assay on SW-620 it was less than −8.00; with SF-539 it was less than −8.00; in the assay on IGROV1, −7.93. In addition, the Log10GI50 is −7.25 in the assay with OVCAR-8 and less than −8.00 in the assay on MDA-MB-231/ATCC. Further, the Log10LC50 in the assay on HL-60(TB) is on record as greater than −4.00; in the assay on HOP-62, −4.76; with NCI-H460 it was −5.64; in the assay with SW-620 it was −4.27; in the assay on SF-539, −4.07; in the assay with IGROV1, greater than −4.00. Moreover, the Log10LC50 in the assay on OVCAR-8 is greater than −4.00; with MDA-MB-231/ATCC, −4.81. In addition, the Log10TGI50 in the assay on HL-60(TB) is on record as −6.67; in the assay on HOP-62, −7.20; in the assay with NCI-H460, −6.77; with SW-620, −6.63; in the assay with SF-539, −7.42; in the assay on IGROV1, −7.02. Also, the figures for the Log10TGI50 in the assay on OVCAR-8 and in the assay on MDA-MB-231/ATCC were −6.29 and −7.08, respectively.
For `CC(C)C[C@H](NC(=O)[C@H](COC(F)F)NC(=O)CN1CCOCC1)C(=O)N[C@@H](COC(F)F)C(=O)N[C@@H](Cc1ccccc1)C(=O)[C@@]1(C)CO1` [Example 4, (2S)-N-[(1S)-2-[[(1S)-1-benzyl-2-[(2R)-2-methyloxiran-2-yl]-2-oxo-ethyl]amino]-1-(difluoromethoxymethyl)-2-oxo-ethyl]-2-[[(2S)-3-(difluoromethoxy)-2-[(2-mor-pholinoacetyl)amino]propanoyl]amino]-4 methyl-pentanamide], the Log10GI50 with HL-60(TB) is −7.44; in the assay with HOP-62 it was −7.65; in the assay with NCI-H460, −6.84; with SW-620 it was −7.43; with SF-539, −7.64; in the assay on IGROV1, −7.33. The Log10GI50 with OVCAR-8 is −6.67; in the assay with MDA-MB-231/ATCC, −7.45. For the same molecule, the Log10LC50 with HL-60(TB) was greater than −4.00; with HOP-62, greater than −4.00; in the assay on NCI-H460, −4.04; in the assay on SW-620 it was −4.40; with SF-539, −5.26; with IGROV1, greater than −4.00. The values for the Log10LC50 with OVCAR-8 and in the assay on MDA-MB-231/ATCC were greater than −4.00 and −4.14, respectively. In addition, the Log10TGI50 is −6.44 with HL-60(TB); −6.98 in the assay with HOP-62; −6.19 with NCI-H460; −5.98 in the assay with SW-620; −7.22 with SF-539; −5.57 with IGROV1. The Log10TGI50 was −5.89 in the assay on OVCAR-8 and −6.37 in the assay with MDA-MB-231/ATCC.
